Measured values published in paper PMC4979471 (Cell Death Discovery, 2015).
“Also recorded” adds a separate entry of the source. Read-outs that look alike come from different tables or passages of the source.

Tests used:
BMDM = test: TNF-induced NFκB activation (IκB phosphorylation and degradation, Western blot); assay type: cell-based, mouse; details: 100 nM
From the text: Lysates prepared in 1× Cell Lysis Buffer (Cell Signaling, Danvers, MA, USA) containing protease and phosphatase inhibitors were separated on 4–12% SDS-PAGE and blotted onto nitrocellulose membrane (Invitrogen, Waltham, MA, USA). Blots were probed for IκB (9242, Cell Signaling), phospho-IκB (2859, Cell Signaling), and tubulin as a loading control.

CDK5/p25 = target: T1, CDK5/p25 (Homo sapiens, UniProt Q00535); test: Kinase selectivity, P33-radiolabeled assay; assay type: biochemical; details: 10 μM ATP
T1 construct: purchased Reaction Biology Corp
T1 sequence (Q00535 whole entry): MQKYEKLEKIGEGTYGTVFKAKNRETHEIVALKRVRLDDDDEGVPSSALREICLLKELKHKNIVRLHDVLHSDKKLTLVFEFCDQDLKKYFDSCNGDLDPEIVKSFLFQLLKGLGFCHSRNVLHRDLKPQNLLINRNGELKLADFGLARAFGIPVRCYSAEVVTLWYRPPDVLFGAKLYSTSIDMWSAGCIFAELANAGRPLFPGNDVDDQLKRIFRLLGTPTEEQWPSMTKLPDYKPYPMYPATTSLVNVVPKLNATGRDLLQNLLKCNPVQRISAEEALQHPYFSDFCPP
T1 sequence (Q15078 99-307 partner limits assumed): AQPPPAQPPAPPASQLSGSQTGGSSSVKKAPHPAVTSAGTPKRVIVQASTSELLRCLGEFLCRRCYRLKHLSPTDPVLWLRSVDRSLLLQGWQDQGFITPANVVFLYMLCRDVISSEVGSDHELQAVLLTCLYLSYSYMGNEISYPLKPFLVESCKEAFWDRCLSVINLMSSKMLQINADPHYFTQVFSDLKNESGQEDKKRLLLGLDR
Outline: (§1)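 Each enzyme was exposed to 10 μM compound, with duplicate measurements, in reactions containing 10 μM ATP. Numbers are remaining activity as a percent of the vehicle (DMSO) signal.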

PAK4 = target: T2, PAK4 (Homo sapiens, UniProt O96013); test: Kinase selectivity, P33-radiolabeled assay; assay type: biochemical; details: 10 μM ATP
T2 construct: purchased Reaction Biology Corp
T2 sequence (O96013 whole entry): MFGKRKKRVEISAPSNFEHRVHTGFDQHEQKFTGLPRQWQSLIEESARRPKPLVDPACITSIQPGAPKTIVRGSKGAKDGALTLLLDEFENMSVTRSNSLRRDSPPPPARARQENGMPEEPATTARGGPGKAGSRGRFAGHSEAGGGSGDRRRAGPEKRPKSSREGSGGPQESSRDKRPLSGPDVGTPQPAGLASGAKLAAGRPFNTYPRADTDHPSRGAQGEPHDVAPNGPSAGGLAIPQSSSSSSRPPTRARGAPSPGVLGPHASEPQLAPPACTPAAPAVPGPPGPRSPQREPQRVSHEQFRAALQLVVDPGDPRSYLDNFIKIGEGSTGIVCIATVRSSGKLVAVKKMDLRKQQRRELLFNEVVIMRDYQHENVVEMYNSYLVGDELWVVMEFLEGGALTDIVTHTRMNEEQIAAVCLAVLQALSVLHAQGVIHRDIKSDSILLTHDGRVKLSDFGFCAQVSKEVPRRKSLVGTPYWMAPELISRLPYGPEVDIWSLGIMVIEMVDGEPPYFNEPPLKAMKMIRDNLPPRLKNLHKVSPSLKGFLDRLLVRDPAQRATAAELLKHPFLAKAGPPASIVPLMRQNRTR
Outline: as §1

TYK1/LTK = target: T3, TYK1/LTK (Homo sapiens, UniProt P29376); test: Kinase selectivity, P33-radiolabeled assay; assay type: biochemical; details: 10 μM ATP
T3 construct: purchased Reaction Biology Corp
T3 sequence (P29376 17-864): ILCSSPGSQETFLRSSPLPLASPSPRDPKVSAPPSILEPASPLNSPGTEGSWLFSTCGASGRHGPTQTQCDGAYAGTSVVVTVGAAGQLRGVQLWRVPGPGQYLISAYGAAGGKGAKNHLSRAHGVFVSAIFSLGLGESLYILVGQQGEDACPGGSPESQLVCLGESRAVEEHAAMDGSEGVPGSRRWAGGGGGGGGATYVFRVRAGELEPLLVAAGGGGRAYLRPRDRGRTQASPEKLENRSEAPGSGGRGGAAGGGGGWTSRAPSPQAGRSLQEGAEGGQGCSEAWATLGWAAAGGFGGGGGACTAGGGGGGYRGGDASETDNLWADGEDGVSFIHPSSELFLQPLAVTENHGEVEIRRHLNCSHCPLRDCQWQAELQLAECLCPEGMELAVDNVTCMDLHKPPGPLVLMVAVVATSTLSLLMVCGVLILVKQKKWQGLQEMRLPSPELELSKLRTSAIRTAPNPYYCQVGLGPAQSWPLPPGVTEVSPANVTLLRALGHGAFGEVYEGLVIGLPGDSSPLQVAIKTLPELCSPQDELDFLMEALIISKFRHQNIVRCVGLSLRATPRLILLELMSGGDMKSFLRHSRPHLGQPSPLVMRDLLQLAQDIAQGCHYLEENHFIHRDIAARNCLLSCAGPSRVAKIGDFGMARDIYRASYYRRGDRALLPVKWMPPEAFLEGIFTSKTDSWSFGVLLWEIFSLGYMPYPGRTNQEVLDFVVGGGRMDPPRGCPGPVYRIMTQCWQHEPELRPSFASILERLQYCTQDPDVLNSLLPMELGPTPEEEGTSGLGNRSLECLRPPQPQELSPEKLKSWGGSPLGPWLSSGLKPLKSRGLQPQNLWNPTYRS
Outline: as §1

ALK1/ACVRL1 = target: T4, ALK1/ACVRL1 (Homo sapiens, UniProt P37023); test: Kinase selectivity, P33-radiolabeled assay; assay type: biochemical; details: 10 μM ATP
T4 construct: purchased Reaction Biology Corp
T4 sequence (P37023 22-503): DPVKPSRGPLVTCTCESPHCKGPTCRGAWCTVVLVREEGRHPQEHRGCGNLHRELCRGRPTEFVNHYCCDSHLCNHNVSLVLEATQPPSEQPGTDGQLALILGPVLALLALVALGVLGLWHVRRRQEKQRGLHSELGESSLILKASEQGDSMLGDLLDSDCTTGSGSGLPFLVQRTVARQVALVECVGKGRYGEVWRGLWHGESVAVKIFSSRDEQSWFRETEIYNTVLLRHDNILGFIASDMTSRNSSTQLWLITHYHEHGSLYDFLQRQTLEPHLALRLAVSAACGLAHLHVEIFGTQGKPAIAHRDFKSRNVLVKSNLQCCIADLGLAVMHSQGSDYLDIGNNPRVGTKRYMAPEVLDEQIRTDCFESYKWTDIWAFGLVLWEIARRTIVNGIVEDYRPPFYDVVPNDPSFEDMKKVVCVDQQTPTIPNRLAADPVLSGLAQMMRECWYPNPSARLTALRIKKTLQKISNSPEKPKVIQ
Outline: as §1

MST1/STK4 = target: T5, MST1/STK4 (Homo sapiens, UniProt Q13043); test: Kinase selectivity, P33-radiolabeled assay; assay type: biochemical; details: 10 μM ATP
T5 construct: purchased Reaction Biology Corp
T5 sequence (Q13043 1-487): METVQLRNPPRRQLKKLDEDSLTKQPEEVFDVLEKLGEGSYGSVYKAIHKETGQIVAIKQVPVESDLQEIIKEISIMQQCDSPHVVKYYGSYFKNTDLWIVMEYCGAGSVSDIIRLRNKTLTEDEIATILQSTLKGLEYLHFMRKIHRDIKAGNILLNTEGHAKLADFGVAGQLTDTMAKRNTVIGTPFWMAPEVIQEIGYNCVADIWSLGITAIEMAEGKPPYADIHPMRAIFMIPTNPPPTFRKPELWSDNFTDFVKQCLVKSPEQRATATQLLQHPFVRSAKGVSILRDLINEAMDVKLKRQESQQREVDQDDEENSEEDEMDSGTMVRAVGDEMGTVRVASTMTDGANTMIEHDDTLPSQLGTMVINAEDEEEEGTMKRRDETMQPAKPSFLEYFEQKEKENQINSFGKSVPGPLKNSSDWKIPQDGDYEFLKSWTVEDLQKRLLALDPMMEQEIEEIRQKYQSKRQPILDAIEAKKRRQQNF
Outline: as §1

ERK1 = target: T6, ERK1 (Homo sapiens, UniProt P27361); test: Kinase selectivity, P33-radiolabeled assay; assay type: biochemical; details: 10 μM ATP
T6 construct: purchased Reaction Biology Corp
T6 sequence (P27361 whole entry): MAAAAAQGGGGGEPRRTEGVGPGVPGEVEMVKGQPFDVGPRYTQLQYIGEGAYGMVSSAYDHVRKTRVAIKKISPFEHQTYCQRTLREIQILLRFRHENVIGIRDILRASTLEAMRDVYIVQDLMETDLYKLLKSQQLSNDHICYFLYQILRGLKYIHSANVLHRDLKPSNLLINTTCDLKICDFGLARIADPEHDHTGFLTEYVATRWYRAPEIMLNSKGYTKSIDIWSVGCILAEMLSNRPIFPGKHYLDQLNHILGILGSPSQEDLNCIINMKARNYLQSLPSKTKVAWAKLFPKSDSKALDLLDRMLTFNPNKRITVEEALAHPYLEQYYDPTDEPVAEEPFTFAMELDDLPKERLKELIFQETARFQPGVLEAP
Outline: as §1

STK33 = target: T7, STK33 (Homo sapiens, UniProt Q9BYT3); test: Kinase selectivity, P33-radiolabeled assay; assay type: biochemical; details: 10 μM ATP
T7 construct: purchased Reaction Biology Corp
T7 sequence (Q9BYT3 whole entry): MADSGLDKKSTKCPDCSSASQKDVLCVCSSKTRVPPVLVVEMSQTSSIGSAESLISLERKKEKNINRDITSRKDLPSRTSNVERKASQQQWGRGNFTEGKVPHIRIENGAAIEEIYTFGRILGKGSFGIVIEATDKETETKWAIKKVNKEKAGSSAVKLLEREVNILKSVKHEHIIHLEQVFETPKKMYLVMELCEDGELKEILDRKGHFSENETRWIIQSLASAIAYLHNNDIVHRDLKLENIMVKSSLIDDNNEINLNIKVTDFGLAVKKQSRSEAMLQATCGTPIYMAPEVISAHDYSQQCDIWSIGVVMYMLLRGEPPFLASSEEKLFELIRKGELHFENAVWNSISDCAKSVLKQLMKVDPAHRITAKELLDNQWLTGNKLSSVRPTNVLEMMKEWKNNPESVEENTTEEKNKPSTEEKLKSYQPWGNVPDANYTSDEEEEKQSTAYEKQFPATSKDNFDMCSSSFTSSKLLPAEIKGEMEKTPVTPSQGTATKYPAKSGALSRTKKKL
Outline: as §1

ARK5/NUAK1 = target: T8, ARK5/NUAK1 (Homo sapiens, UniProt O60285); test: Kinase selectivity, P33-radiolabeled assay; assay type: biochemical; details: 10 μM ATP
T8 construct: purchased Reaction Biology Corp
T8 sequence (O60285 1-661): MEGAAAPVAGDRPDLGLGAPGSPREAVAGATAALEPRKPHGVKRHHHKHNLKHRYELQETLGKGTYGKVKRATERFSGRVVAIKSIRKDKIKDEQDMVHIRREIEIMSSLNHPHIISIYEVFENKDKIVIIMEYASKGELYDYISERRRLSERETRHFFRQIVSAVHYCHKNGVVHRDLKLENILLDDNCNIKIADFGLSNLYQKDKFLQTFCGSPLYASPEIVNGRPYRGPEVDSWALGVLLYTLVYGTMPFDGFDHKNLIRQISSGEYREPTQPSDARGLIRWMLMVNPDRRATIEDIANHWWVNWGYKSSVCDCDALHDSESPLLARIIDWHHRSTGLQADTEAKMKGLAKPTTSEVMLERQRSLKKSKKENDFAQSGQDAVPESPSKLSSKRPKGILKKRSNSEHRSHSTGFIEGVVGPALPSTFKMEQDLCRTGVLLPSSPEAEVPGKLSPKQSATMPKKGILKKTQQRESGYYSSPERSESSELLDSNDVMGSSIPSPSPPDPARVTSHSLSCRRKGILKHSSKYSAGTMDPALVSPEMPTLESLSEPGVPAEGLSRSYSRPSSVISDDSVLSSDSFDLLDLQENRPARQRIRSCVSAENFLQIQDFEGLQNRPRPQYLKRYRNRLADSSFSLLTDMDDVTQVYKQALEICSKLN
Outline: as §1

MARK1 = target: T9, MARK1 (Homo sapiens, UniProt Q9P0L2); test: Kinase selectivity, P33-radiolabeled assay; assay type: biochemical; details: 10 μM ATP
T9 construct: purchased Reaction Biology Corp
T9 sequence (Q9P0L2 whole entry): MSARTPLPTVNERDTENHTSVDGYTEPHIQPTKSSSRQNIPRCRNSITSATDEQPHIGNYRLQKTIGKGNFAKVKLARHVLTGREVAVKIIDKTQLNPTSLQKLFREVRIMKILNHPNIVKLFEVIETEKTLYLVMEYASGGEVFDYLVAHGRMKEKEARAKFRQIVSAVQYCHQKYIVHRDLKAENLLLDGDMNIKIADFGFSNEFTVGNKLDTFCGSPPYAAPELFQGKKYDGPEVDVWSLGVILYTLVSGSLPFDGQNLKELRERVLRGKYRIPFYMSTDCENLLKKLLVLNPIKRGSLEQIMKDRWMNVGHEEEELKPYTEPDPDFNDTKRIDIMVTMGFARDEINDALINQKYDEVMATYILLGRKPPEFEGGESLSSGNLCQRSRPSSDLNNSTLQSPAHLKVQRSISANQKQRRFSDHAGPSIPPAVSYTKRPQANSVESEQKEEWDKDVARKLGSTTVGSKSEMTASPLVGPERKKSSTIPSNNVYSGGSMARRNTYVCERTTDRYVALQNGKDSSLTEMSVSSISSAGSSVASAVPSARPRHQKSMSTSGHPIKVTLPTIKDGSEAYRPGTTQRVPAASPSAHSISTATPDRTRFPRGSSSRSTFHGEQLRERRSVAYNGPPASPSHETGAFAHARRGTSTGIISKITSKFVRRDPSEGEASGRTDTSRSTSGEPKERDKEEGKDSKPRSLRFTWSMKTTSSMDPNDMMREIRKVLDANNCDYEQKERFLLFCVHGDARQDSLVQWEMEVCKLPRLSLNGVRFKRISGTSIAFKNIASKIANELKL
Outline: as §1

C57BL/6 mice = test: TNF+zVAD-induced shock model (temperature loss); assay type: in vivo, mouse; details: 15 min before TNF+zVAD
Procedure: Temperature was monitored over the course of 3 h by rectal probe.

[1] = read-out: % Enzyme Activity (relative to DMSO controls) AVG
[2] = read-out: % Enzyme Activity (relative to DMSO controls) Data 1
[3] = read-out: % Enzyme Activity (relative to DMSO controls) Data 2

CC(C)(C)C(=O)N1N=CC[C@H]1c1ccccc1 [GSK′963]
effect on TNF-induced NFκB activation (BMDM): no measurable effects; also recorded: no effect
remaining activity at 10 µM (CDK5/p25; [1]): 97%
remaining activity at 10 µM (CDK5/p25; [2]): 98.1%
remaining activity at 10 µM (CDK5/p25; [3]): 95.8%
remaining activity at 10 µM (PAK4; [1]): 93%
remaining activity at 10 µM (PAK4; [2]): 95.4%
remaining activity at 10 µM (PAK4; [3]): 90.5%
remaining activity at 10 µM (TYK1/LTK; [1]): 104%
remaining activity at 10 µM (TYK1/LTK; [2]): 104%
remaining activity at 10 µM (TYK1/LTK; [3]): 105%
remaining activity at 10 µM (ALK1/ACVRL1; [1]): 97.7%
remaining activity at 10 µM (ALK1/ACVRL1; [2]): 104%
remaining activity at 10 µM (ALK1/ACVRL1; [3]): 91.2%
remaining activity at 10 µM (MST1/STK4; [1]): 100%
remaining activity at 10 µM (MST1/STK4; [2]): 101%
remaining activity at 10 µM (MST1/STK4; [3]): 100%
remaining activity at 10 µM (ERK1; [1]): 102%
remaining activity at 10 µM (ERK1; [2]): 98.8%
remaining activity at 10 µM (ERK1; [3]): 104%
remaining activity at 10 µM (STK33; [1]): 103%
remaining activity at 10 µM (STK33; [2]): 104%
remaining activity at 10 µM (STK33; [3]): 102%
remaining activity at 10 µM (ARK5/NUAK1; [1]): 98%
remaining activity at 10 µM (ARK5/NUAK1; [2]): 95.8%
remaining activity at 10 µM (ARK5/NUAK1; [3]): 100%
remaining activity at 10 µM (MARK1; [1]): 105%
remaining activity at 10 µM (MARK1; [2]): 105%
remaining activity at 10 µM (MARK1; [3]): 105%
protection from TNF+zVAD-induced temperature loss (C57BL/6 mice; 0.2 mg/kg i.p.): significant response
protection from TNF+zVAD-induced temperature loss (C57BL/6 mice; 2 mg/kg i.p.): completely inhibit temperature loss; also recorded: complete protection
